Here are results for 16 compounds from patent US8530493B2, “Indolopyridines as Eg5 kinesin modulators” (4SC AG, priority 2006, dated 2013).

The test system of experiment [1] is RKO p27 or p21 uninduced (proliferating) colon adenocarcinoma cells. As to the kind of experiment: Alamar Blue cell viability assay, RKO p27 or p21 uninduced (proliferating). The settings on record: Homo sapiens, RKOp27, 72 h, Table B2, anti-proliferative/cytotoxic activity, read-out: −log EC50 RKO p27 or p21 uninduced (proliferating) (converted). Type of experiment: cell-based. Summed up:
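Viability read by Alamar Blue fluorescence (ex 544, em 590 nm), normalised to untreated wells, after 72 h, 37° C, 5% CO2 compound exposure in triplicate. Cells were uninduced (no Ponasterone A), proliferating RKO colon carcinoma p27 or p21 subclones in DMEM with 10% FCS; values are −log EC50 (mol/l).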

The test system of experiment [2] is RKO p27 or p21 induced (arrested) colon adenocarcinoma cells. Kind of experiment: Alamar Blue cell viability assay, RKO p27 or p21 induced (arrested). Type of experiment: cell-based. The settings on record: Homo sapiens, RKOp27, Table B2, cells arrested by Ponasterone A, 72 hours, read-out: −log EC50 RKO p27 or p21 induced (arrested) (converted). Summed up:
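RKOp21 or RKOp27 subclones in DMEM/10% FCS with 10 μM Ponasterone A to induce p21/p27 arrest, seeded 24 h before compound; triplicate 72 h exposure at 37 °C. Alamar Blue fluorescence (544/590 nm) as % of untreated (1% DMSO) cells; EC50 from dose-response curves, reported as −log EC50 (mol/l).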

With `C#CCN(C)CCN1C(=O)N2[C@H](c3cccc(O)c3)c3[nH]c4ccc(OC)cc4c3C[C@@]2(C)C1=O` (racemic) [Example 81, (3aSR,10RS)-10-(3-Hydroxy-phenyl)-6-methoxy-3a-methyl-2-[2-(methyl-prop-2-ynyl-amino)-ethyl]-3a,4,9,10-tetrahydro-2,9,10a-triaza-cyclopenta[b]fluorene-1,3-dione], the results for the concentration for a half-maximal effect (EC50) in experiment [1] and in experiment [2] were at most 39.8 nM and at least 3160 nM, respectively.
As to `COc1ccc2[nH]c3c(c2c1)C[C@@]1(C)C(=O)N(CCCN(C)C(C)C)C(=O)N1[C@@H]3c1cccc(O)c1` (racemic) [Example 94, (3aSR,10RS)-10-(3-Hydroxy-phenyl)-2-[3-(isopropyl-methyl-amino)-propyl]-6-methoxy-3a-methyl-3a,4,9,10-tetrahydro-2,9,10a-triaza-cyclopenta[b]fluorene-1,3-dione], the EC50 is at most 39.8 nM in experiment [1] and at least 3160 nM in experiment [2].
On the same counts, the results for `CC(C)N(C)CCCN1C(=O)N2[C@H](c3cccc(O)c3)c3[nH]c4ccc(Cl)cc4c3C[C@@]2(C)C1=O` (racemic) [Example 133, (3aSR,10RS)-6-Chloro-10-(3-hydroxy-phenyl)-2-[3-(isopropyl-methyl-amino)-propyl]-3a-methyl-3a,4,9,10-tetrahydro-2,9,10a-triaza-cyclopenta[b]fluorene-1,3-dione] are at most 39.8 nM and at least 316 nM.
For `C=CCNCCN1C(=O)N2[C@H](c3cccc(O)c3)c3[nH]c4ccc(OC)cc4c3C[C@@]2(C)C1=O` (racemic) [Example 84, (3aSR,10RS)-2-(2-Allylamino-ethyl)-10-(3-hydroxy-phenyl)-6-methoxy-3a-methyl-3a,4,9,10-tetrahydro-2,9,10a-triaza-cyclopenta[b]fluorene-1,3-dione], in that order: at most 39.8 nM and at least 3160 nM.
For `COc1ccc2[nH]c3c(c2c1)C[C@@]1(C)C(=O)N(CCCNCC2CC2)C(=O)N1[C@@H]3c1cccc(O)c1` (racemic) [Example 95, (3aSR,10RS)-2-[3-(Cyclopropylmethyl-amino)-propyl]-10-(3-hydroxy-phenyl)-6-methoxy-3a-methyl-3a,4,9,10-tetrahydro-2,9,10a-triaza-cyclopenta[b]fluorene-1,3-dione], in that order: at most 39.8 nM and at least 3160 nM.
Turning to `CC(C)CNCCCN1C(=O)N2[C@H](c3cccc(O)c3)c3[nH]c4ccc(Cl)cc4c3C[C@@]2(C)C1=O` (racemic) [Example 135, (3aSR,10RS)-6-Chloro-10-(3-hydroxy-phenyl)-2-(3-isobutylamino-propyl)-3a-methyl-3a,4,9,10-tetrahydro-2,9,10a-triaza-cyclopenta[b]fluorene-1,3-dione], the concentration giving a half-maximal response (EC50) in experiment [1] is at most 39.8 nM; in experiment [2], at least 3160 nM.
On the same counts, the results for `COc1ccc2[nH]c3c(c2c1)C[C@@]1(C)C(=O)N(CCCNC2CC2)C(=O)N1[C@@H]3c1cccc(O)c1` (racemic) [Example 93, (3aSR,10RS)-2-(3-Cyclopropylamino-propyl)-10-(3-hydroxy-phenyl)-6-methoxy-3a-methyl-3a,4,9,10-tetrahydro-2,9,10a-triaza-cyclopenta[b]fluorene-1,3-dione] are at most 39.8 nM and at least 3160 nM.
With `C[C@@]12Cc3c([nH]c4ccc(Cl)cc34)[C@@H](c3cccc(O)c3)N1C(=O)N(CCN1CC=CCC1)C2=O` (racemic) [Example 100, (3aSR,10RS)-6-Chloro-2-[2-(3,6-dihydro-2H-pyridin-1-yl)-ethyl]-10-(3-hydroxy-phenyl)-3a-methyl-3a,4,9,10-tetrahydro-2,9,10a-triaza-cyclopenta[b]fluorene-1,3-dione], the figures for the EC50 in experiment [1] and in experiment [2] were at most 39.8 nM and at least 3160 nM, respectively.
On to `C#CCNCCCN1C(=O)N2[C@H](c3cccc(O)c3)c3[nH]c4ccc(OC)cc4c3C[C@@]2(C)C1=O` (racemic) [Example 147, (3aSR,10RS)-10-(3-Hydroxy-phenyl)-6-methoxy-3a-methyl-2-(3-prop-2-ynylamino-propyl)-3a,4,9,10-tetrahydro-2,9,10a-triaza-cyclopenta[b]fluorene-1,3-dione], for which the figures for the EC50 in experiment [1] and in experiment [2] were at most 39.8 nM and at least 316 nM, respectively.
For the compound `C[C@@]12Cc3c([nH]c4ccc(Cl)cc34)[C@@H](c3cccc(O)c3)N1C(=O)N(CCNCC(F)F)C2=O` (racemic) [Example 123, (3aSR,10RS)-6-Chloro-2-[2-(2,2-difluoro-ethylamino)-ethyl]-10-(3-hydroxy-phenyl)-3a-methyl-3a,4,9,10-tetrahydro-2,9,10a-triaza-cyclopenta[b]fluorene-1,3-dione], the results for the 50% effective concentration (EC50) in experiment [1] and in experiment [2] were 39.8 to 251 nM and at least 316 nM, respectively.
On the same counts, the results for `C#CCN(C)CCN1C(=O)N2[C@H](c3cccc(O)c3)c3[nH]c4ccc(Cl)cc4c3C[C@@]2(C)C1=O` (racemic) [Example 116, (3aSR,10RS)-6-Chloro-10-(3-hydroxy-phenyl)-3a-methyl-2-[2-(methyl-prop-2-ynyl-amino)-ethyl]-3a,4,9,10-tetrahydro-2,9,10a-triaza-cyclopenta[b]fluorene-1,3-dione] are 39.8 to 251 nM and at least 316 nM.
Regarding `C=CCN(C)CCN1C(=O)N2[C@H](c3cccc(O)c3)c3[nH]c4ccc(Cl)cc4c3C[C@@]2(C)C1=O` (racemic) [Example 117, (3aSR,10RS)-2-[2-(Allyl-methyl-amino)-ethyl]-6-chloro-10-(3-hydroxy-phenyl)-3a-methyl-3a,4,9,10-tetrahydro-2,9,10a-triaza-cyclopenta[b]fluorene-1,3-dione], the concentration giving a half-maximal response (EC50) was at most 39.8 nM in experiment [1] and at least 316 nM in experiment [2].
Consider `CCN(CCOC)CCN1C(=O)N2[C@H](c3cccc(O)c3)c3[nH]c4ccc(Cl)cc4c3C[C@@]2(C)C1=O` (racemic) [Example 121, (3aSR,10RS)-6-Chloro-2-{2-[ethyl-(2-methoxy-ethyl)-amino]-ethyl}-10-(3-hydroxy-phenyl)-3a-methyl-3a,4,9,10-tetrahydro-2,9,10a-triaza-cyclopenta[b]fluorene-1,3-dione], for which the EC50 in experiment [1] is 39.8 to 251 nM; in experiment [2], at least 316 nM.
On the same counts, the results for `CCN(CCO)CCCN1C(=O)N2[C@H](c3cccc(O)c3)c3[nH]c4ccc(OC)cc4c3C[C@@]2(C)C1=O` (racemic) [Example 89, (3aSR,10RS)-2-{3-[Ethyl-(2-hydroxy-ethyl)-amino]-propyl}-10-(3-hydroxy-phenyl)-6-methoxy-3a-methyl-3a,4,9,10-tetrahydro-2,9,10a-triaza-cyclopenta[b]fluorene-1,3-dione] are at most 39.8 nM and at least 3160 nM.
For `COc1ccc2[nH]c3c(c2c1)C[C@@]1(C)C(=O)N(CCNC(C)(C)C)C(=O)N1[C@@H]3c1cccc(O)c1` (racemic) [Example 72, (3aSR,10RS)-2-(2-tert-Butylamino-ethyl)-10-(3-hydroxy-phenyl)-6-methoxy-3a-methyl-3a,4,9,10-tetrahydro-2,9,10a-triaza-cyclopenta[b]fluorene-1,3-dione], in that order: at most 39.8 nM and at least 3160 nM.
For `CCN(CC)CCCN1C(=O)N2[C@H](c3cccc(O)c3)c3[nH]c4ccc(Cl)cc4c3C[C@@]2(C)C1=O` (racemic) [Example 137, (3aSR,10RS)-6-Chloro-2-(3-diethylamino-propyl)-10-(3-hydroxy-phenyl)-3a-methyl-3a,4,9,10-tetrahydro-2,9,10a-triaza-cyclopenta[b]fluorene-1,3-dione], in that order: at most 39.8 nM and at least 3160 nM.
